Assays:
Test in all cases: relative viability (nuclei count vs DMSO), 5 days (fraction); higher = more cells survive
[1] = tested on: NCI-H1944
Method in brief: (§1)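 Relative viability equals treated-well nuclei counts divided by vehicle-well nuclei counts. Counts came from 4× images of lung cancer cell lines grown in 1536-well plates for 5 days after pin-tool dosing on the day after seeding. Dosing used one drug alone or a fixed anchor-drug dose plus five library-drug doses (not always all listed) in √10 steps, and values are medians of duplicate plates.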

[2] = tested on: NCI-H1792
Method in brief: as §1

[3] = tested on: A-427
Method in brief: as §1

[4] = tested on: NCI-H460
Method in brief: as §1

[5] = tested on: BEN
Method in brief: as §1

[6] = tested on: NCI-H661
Method in brief: as §1

[7] = tested on: LCLC-97TM1
Method in brief: as §1

[8] = tested on: ABC-1
Method in brief: as §1

[9] = tested on: NCI-H2023
Method in brief: as §1

[10] = tested on: NCI-H2087
Method in brief: as §1

[11] = tested on: 201T
Method in brief: as §1

For `CC1(C)CCC(c2ccc(Cl)cc2)=C(CN2CCN(c3ccc(C(=O)NS(=O)(=O)c4ccc(N[C@H](CCN5CCOCC5)CSc5ccccc5)c(S(=O)(=O)C(F)(F)F)c4)cc3)CC2)C1` [Navitoclax] + C[C@]1(O)C[C@@H](c2nc(-c3ccc4ccc(-c5ccccc5)nc4c3)c3c(N)nccn32)C1 [Linsitinib] (partner 1 µM), the relative viability ([1]; first compound 0.01581 µM) was 1.33, the relative viability ([1]; first compound 0.05 µM) was 1.01 and the relative viability ([1]; first compound 0.1581 µM) was 1.19. It also gave a relative viability ([1]; first compound 0.5 µM) of 1.17, a relative viability ([2]; first compound 0.005 µM) of 0.554 and a relative viability ([2]; first compound 0.01581 µM) of 0.629. The relative viability ([2]; first compound 0.05 µM) was 0.414, the relative viability ([2]; first compound 0.1581 µM) was 0.539 and the relative viability ([2]; first compound 0.5 µM) was 0.609. The relative viability ([3]; first compound 0.005 µM) was 1.13, the relative viability ([3]; first compound 0.01581 µM) was 1.11 and the relative viability ([3]; first compound 0.05 µM) was 0.911. The relative viability ([3]; first compound 0.1581 µM) was 1.12, the relative viability ([3]; first compound 0.5 µM) was 1.15 and the relative viability ([4]; first compound 0.005 µM) was 0.77. It also gave a relative viability ([4]; first compound 0.01581 µM) of 0.825, a relative viability ([4]; first compound 0.05 µM) of 0.919 and a relative viability ([4]; first compound 0.1581 µM) of 0.896. The relative viability ([4]; first compound 0.5 µM) was 0.744, the relative viability ([5]; first compound 0.005 µM) was 0.841 and the relative viability ([5]; first compound 0.01581 µM) was 0.921. For the same molecule, the relative viability ([5]; first compound 0.05 µM) was 0.958, the relative viability ([5]; first compound 0.1581 µM) was 0.911 and the relative viability ([5]; first compound 0.5 µM) was 0.634. The relative viability ([6]; first compound 0.005 µM) was 0.524, the relative viability ([6]; first compound 0.01581 µM) was 0.601 and the relative viability ([6]; first compound 0.05 µM) was 0.575. It also gave a relative viability ([6]; first compound 0.1581 µM) of 0.552, a relative viability ([6]; first compound 0.5 µM) of 0.5 and a relative viability ([7]; first compound 0.005 µM) of 0.189. For the same molecule, the relative viability ([7]; first compound 0.01581 µM) was 0.186, the relative viability ([7]; first compound 0.05 µM) was 0.193 and the relative viability ([7]; first compound 0.1581 µM) was 0.18. For the same molecule, the relative viability ([7]; first compound 0.5 µM) was 0.172, the relative viability ([8]; first compound 0.005 µM) was 0.641 and the relative viability ([8]; first compound 0.01581 µM) was 0.976. The relative viability ([8]; first compound 0.05 µM) was 0.81, the relative viability ([8]; first compound 0.1581 µM) was 0.703 and the relative viability ([8]; first compound 0.5 µM) was 0.708. The relative viability ([9]; first compound 0.005 µM) was 0.625, the relative viability ([9]; first compound 0.01581 µM) was 0.713 and the relative viability ([9]; first compound 0.05 µM) was 0.716. For the same molecule, the relative viability ([9]; first compound 0.1581 µM) was 0.766, the relative viability ([9]; first compound 0.5 µM) was 0.647 and the relative viability ([10]; first compound 0.005 µM) was 0.919. For the same molecule, the relative viability ([10]; first compound 0.01581 µM) was 0.898, the relative viability ([10]; first compound 0.05 µM) was 0.956 and the relative viability ([10]; first compound 0.1581 µM) was 1.14. The relative viability ([10]; first compound 0.5 µM) was 0.871, the relative viability ([11]; first compound 0.005 µM) was 1.11 and the relative viability ([11]; first compound 0.01581 µM) was 1.09. The relative viability ([11]; first compound 0.05 µM) was 0.95, the relative viability ([11]; first compound 0.1581 µM) was 1.05 and the relative viability ([11]; first compound 0.5 µM) was 1.01.

Source: the supplement of paper PMC10307832
